Measurements reported in patent publication US20100041089A1, “IMPROVED METHOD FOR DETECTING CHEMICAL […]” (priority 2006, published 2010).

Tested on: yeast genes (expressed mRNA)
Assay: DNA chip measurement of expressed mRNA of yeast genes after culture with a toxic chemical substance
Type: cell-based, Saccharomyces cerevisiae S288C
Settings: for level of expressed mRNA in the presence of chemical substance / level in the absence of chemical substance: cultured two hours with the chemical substance; for The level of expressed mRNA in the presence of chemical substance/The level of expressed mRNA in the absence of chemical substance: cultured two hours with substance
Procedure: Yeast (Saccharomyces cerevisiae S288C (a SUC2mal mel gap2 CUP1)) were cultured at 25° C. on YPD medium (yeast extract 1%, polypeptone 2%, glucose 2%). One of toxic chemical substances was added to the cell at logarithmic growth phase, and the cell was further cultured for two hours. Cell was cultured without any chemical substance in the same condition, and was used as a control. Concentrations of the chemical substances were defined to inhibit the growth of the yeast but not lead to death.
After the completion of cultivation, the culture was centrifuged to collect the cells. To the cells, sodium acetate buffer (50 mM sodium acetate, 10 mM EDTA, 1% SDS) was added, and the mixture was shaken at 65° C. for five minutes, followed by returning to room temperature, and obtaining the supernatant, which procedure was repeated two times. To the supernatant, ½ amount of a solution of phenol/chloroform (1:1) was added, and the mixture was centrifuged to give a supernatant, an equal amount of chloroform was added, and the mixture was centrifuged to give a supernatant. To the supernatant, an equal amount of isopropanol containing 0.3 M sodium acetate was added, and the mixture was allowed to stand at room temperature for 30 minutes, after which the mixture was centrifuged to give sediment of the whole RNAs. Seventy % ethanol was added to the sediment, and the mixture was again centrifuged to give sediment, which was then dried and dissolved in water. mRNA was isolated from the whole RNAs as followings. In view of the fact that a poly A chain is attached to the 3′ terminus of mRNA, a polynucleotide having a poly T structure which was immobilized on the surface of latex beads was used to trap the mRNA, and then the mRNA was washed and eluted with spine column (Oligotex-dT30<Super>mRNA Purification Kit, Takara). Reverse transcription of the mRNA was conducted with a reverse transcriptase (Super Script II Reverse Transcriptase; catalogue No. 18064-014, GibcoBRL) using fluorescence-labeled nucleotides to give cDNAs that were introduced with Cy3-dUTP or Cy5-dUTP during the reverse transcription.
The labeled cDNAs were dissolved in TE buffer (10 mM Tris-HCl/1 mM EDTA, pH 8.0), and the solution was dropped on the DNA chip containing the whole genes of yeast (DNA Chip Research Inc. Japan) so that the cDNAs were hybridized on the DNA chip at 65° C. for over 12 hours. The fluoresces intensity of the DNA chip was read with a scanner, and the ratio relative to the fluorescence intensity resulting from the absence of chemical substance was estimated as the following, which is shown in Tables 1 to 9.
In the Tables, “Intensity” indicated in the rightmost column is a value of the level of expressed mRNA of each gene in control cells as divided by the average level of the expressions of the whole genes. A gene of which mRNA level is lower in control, and is higher in cases of addition of chemical substance, is especially useful in the detection of toxic substances.
Here, when a ratio of an amount of mRNA expressed in the presence of the chemical substance to an amount of mRNA expressed in the absence of the chemical substance is two or more, then it is considered significant.

SMILES: [Cl][Cd][Cl] [(2), CdCl2]
- The level of expressed mRNA in the presence of chemical substance/The level of expressed mRNA in the absence of chemical substance, yeast gene YBR036C (gene YBR036C, Metabolism protein genes, DNA chip fluorescence ratio): 1.7
- The level of expressed mRNA in the presence of chemical substance/The level of expressed mRNA in the absence of chemical substance, yeast gene YBR298C (gene YBR298C, Metabolism protein genes, DNA chip fluorescence ratio): 1.0
- The level of expressed mRNA in the presence of chemical substance/The level of expressed mRNA in the absence of chemical substance, yeast gene YDL067C (gene YDL067C (mitochondria-located protein gene), yeast cultured two hours with chemical substance, DNA chip fluorescence ratio to control): 1.0
- The level of expressed mRNA in the presence of chemical substance/The level of expressed mRNA in the absence of chemical substance, yeast gene YDL078C (gene YDL078C, Metabolism protein genes, DNA chip fluorescence ratio): 1.1
- The level of expressed mRNA in the presence of chemical substance/The level of expressed mRNA in the absence of chemical substance, yeast gene YDL215C (gene YDL215C, Metabolism protein genes, DNA chip fluorescence ratio): 1.5
- The level of expressed mRNA in the presence of chemical substance/The level of expressed mRNA in the absence of chemical substance, yeast gene YDR079W (gene YDR079W (mitochondria-located protein gene), yeast cultured two hours with chemical substance, DNA chip fluorescence ratio to control): 1.1
- The level of expressed mRNA in the presence of chemical substance/The level of expressed mRNA in the absence of chemical substance, yeast gene YDR297W (gene YDR297W, Metabolism protein genes, DNA chip fluorescence ratio): 0.8
- The level of expressed mRNA in the presence of chemical substance/The level of expressed mRNA in the absence of chemical substance, yeast gene YDR387C (gene YDR387C, Metabolism protein genes, DNA chip fluorescence ratio): 0.9
- The level of expressed mRNA in the presence of chemical substance/The level of expressed mRNA in the absence of chemical substance, yeast gene YGL035C (gene YGL035C, Metabolism protein genes, DNA chip fluorescence ratio): 1.4
- The level of expressed mRNA in the presence of chemical substance/The level of expressed mRNA in the absence of chemical substance, yeast gene YGR062C (gene YGR062C (mitochondria-located protein gene), yeast cultured two hours with chemical substance, DNA chip fluorescence ratio to control): 1.0
- The level of expressed mRNA in the presence of chemical substance/The level of expressed mRNA in the absence of chemical substance, yeast gene YGR287C (gene YGR287C, Metabolism protein genes, DNA chip fluorescence ratio): 1.0
- The level of expressed mRNA in the presence of chemical substance/The level of expressed mRNA in the absence of chemical substance, yeast gene YJL070C (gene YJL070C, Metabolism protein genes, DNA chip fluorescence ratio): 0.9
- The level of expressed mRNA in the presence of chemical substance/The level of expressed mRNA in the absence of chemical substance, yeast gene YJL096W (gene YJL096W (mitochondria-located protein gene), yeast cultured two hours with chemical substance, DNA chip fluorescence ratio to control): 1.0
- The level of expressed mRNA in the presence of chemical substance/The level of expressed mRNA in the absence of chemical substance, yeast gene YJL180C (gene YJL180C (mitochondria-located protein gene), yeast cultured two hours with chemical substance, DNA chip fluorescence ratio to control): 1.6
- The level of expressed mRNA in the presence of chemical substance/The level of expressed mRNA in the absence of chemical substance, yeast gene YKR009C (gene YKR009C, Metabolism protein genes, DNA chip fluorescence ratio): 1.2
- The level of expressed mRNA in the presence of chemical substance/The level of expressed mRNA in the absence of chemical substance, yeast gene YLR295C (gene YLR295C (mitochondria-located protein gene), yeast cultured two hours with chemical substance, DNA chip fluorescence ratio to control): 1.1
- The level of expressed mRNA in the presence of chemical substance/The level of expressed mRNA in the absence of chemical substance, yeast gene YLR351C (gene YLR351C, Metabolism protein genes, DNA chip fluorescence ratio): 1.4
- The level of expressed mRNA in the presence of chemical substance/The level of expressed mRNA in the absence of chemical substance, yeast gene YLR375W (gene YLR375W, Metabolism protein genes, DNA chip fluorescence ratio): 1.5
- The level of expressed mRNA in the presence of chemical substance/The level of expressed mRNA in the absence of chemical substance, yeast gene YMR023C (gene YMR023C (mitochondria-located protein gene), yeast cultured two hours with chemical substance, DNA chip fluorescence ratio to control): 1.3
- The level of expressed mRNA in the presence of chemical substance/The level of expressed mRNA in the absence of chemical substance, yeast gene YMR267W (gene YMR267W (mitochondria-located protein gene), yeast cultured two hours with chemical substance, DNA chip fluorescence ratio to control): 1.8
- The level of expressed mRNA in the presence of chemical substance/The level of expressed mRNA in the absence of chemical substance, yeast gene YMR267W (gene YMR267W, Metabolism protein genes, DNA chip fluorescence ratio): 1.8
- The level of expressed mRNA in the presence of chemical substance/The level of expressed mRNA in the absence of chemical substance, yeast gene YMR278W (gene YMR278W, Metabolism protein genes, DNA chip fluorescence ratio): 1.7
- The level of expressed mRNA in the presence of chemical substance/The level of expressed mRNA in the absence of chemical substance, yeast gene YMR293C (gene YMR293C, Metabolism protein genes, DNA chip fluorescence ratio): 1.5
- The level of expressed mRNA in the presence of chemical substance/The level of expressed mRNA in the absence of chemical substance, yeast gene YNL073W (gene YNL073W (mitochondria-located protein gene), yeast cultured two hours with chemical substance, DNA chip fluorescence ratio to control): 1.4
- The level of expressed mRNA in the presence of chemical substance/The level of expressed mRNA in the absence of chemical substance, yeast gene YNR072W (gene YNR072W, Metabolism protein genes, DNA chip fluorescence ratio): 1.5
- The level of expressed mRNA in the presence of chemical substance/The level of expressed mRNA in the absence of chemical substance, yeast gene YOL096C (gene YOL096C, Metabolism protein genes, DNA chip fluorescence ratio): 1.0
- The level of expressed mRNA in the presence of chemical substance/The level of expressed mRNA in the absence of chemical substance, yeast gene YOR180C (gene YOR180C, Metabolism protein genes, DNA chip fluorescence ratio): 1.1
- The level of expressed mRNA in the presence of chemical substance/The level of expressed mRNA in the absence of chemical substance, yeast gene YOR316C (gene YOR316C (mitochondria-located protein gene), yeast cultured two hours with chemical substance, DNA chip fluorescence ratio to control): 2.5
- The level of expressed mRNA in the presence of chemical substance/The level of expressed mRNA in the absence of chemical substance, yeast gene YOR363C (gene YOR363C, Metabolism protein genes, DNA chip fluorescence ratio): 2.0
- The level of expressed mRNA in the presence of chemical substance/The level of expressed mRNA in the absence of chemical substance, yeast gene YPL040C (gene YPL040C (mitochondria-located protein gene), yeast cultured two hours with chemical substance, DNA chip fluorescence ratio to control): 1.0
- The level of expressed mRNA in the presence of chemical substance/The level of expressed mRNA in the absence of chemical substance, yeast gene YPL134C (gene YPL134C (mitochondria-located protein gene), yeast cultured two hours with chemical substance, DNA chip fluorescence ratio to control): 1.0
- The level of expressed mRNA in the presence of chemical substance/The level of expressed mRNA in the absence of chemical substance, yeast gene YPR184W (gene YPR184W, Metabolism protein genes, DNA chip fluorescence ratio): 1.4
- level of expressed mRNA in the presence of chemical substance / level in the absence of chemical substance (yeast gene YAL018C): 1.9
- The level of expressed mRNA in the presence of chemical substance/The level of expressed mRNA in the absence of chemical substance (yeast gene YAL053W): 0.9
- level of expressed mRNA in the presence of chemical substance / level in the absence of chemical substance (yeast gene YAR047C): 1.7
- level of expressed mRNA in the presence of chemical substance / level in the absence of chemical substance (yeast gene YAR064W): 0.9
- level of expressed mRNA in the presence of chemical substance / level in the absence of chemical substance (yeast gene YBL044W): 2.7
- The level of expressed mRNA in the presence of chemical substance/The level of expressed mRNA in the absence of chemical substance (yeast gene YBL048W): 7.9
- The level of expressed mRNA in the presence of chemical substance/The level of expressed mRNA in the absence of chemical substance (yeast gene YBL107C): 1.1
- level of expressed mRNA in the presence of chemical substance / level in the absence of chemical substance (yeast gene YBR012C): 1.7
- level of expressed mRNA in the presence of chemical substance / level in the absence of chemical substance (yeast gene YBR066C): 1.3
- level of expressed mRNA in the presence of chemical substance / level in the absence of chemical substance (yeast gene YBR124W): 1.4
- level of expressed mRNA in the presence of chemical substance / level in the absence of chemical substance (yeast gene YBR162C): 0.5
- level of expressed mRNA in the presence of chemical substance / level in the absence of chemical substance (yeast gene YBR287W): 1.9
- level of expressed mRNA in the presence of chemical substance / level in the absence of chemical substance (yeast gene YCL042W): 2.5
- level of expressed mRNA in the presence of chemical substance / level in the absence of chemical substance (yeast gene YCL056C): 1.4
- level of expressed mRNA in the presence of chemical substance / level in the absence of chemical substance (yeast gene YCR007C): 1.6
- level of expressed mRNA in the presence of chemical substance / level in the absence of chemical substance (yeast gene YDL046W): 1.4
- The level of expressed mRNA in the presence of chemical substance/The level of expressed mRNA in the absence of chemical substance (yeast gene YDL072C): 1.1
- The level of expressed mRNA in the presence of chemical substance/The level of expressed mRNA in the absence of chemical substance (yeast gene YDL204W): 1.9
- The level of expressed mRNA in the presence of chemical substance/The level of expressed mRNA in the absence of chemical substance (yeast gene YDL222C): 1.1
- level of expressed mRNA in the presence of chemical substance / level in the absence of chemical substance (yeast gene YDR090C): 3.0
